One block for each compound: values may come before it.
Experiments:
[1] = Dynamic 60 min PET/CT of healthy mice, whole-brain time activity curve; assay type: in vivo, mouse; conditions: healthy mice
From the text: A transmission scan was acquired to correct for attenuation during image reconstruction. Following PET imaging, mice were transferred to a SOFIE GNEXT PET/CT for CT acquisition. PET/CT data were co-registered and analyzed using Inveon Research Workplace software to generate images and quantify radiotracer uptake in regions of interest (ROIs). A 3D ROI was manually defined for the whole brain using CT data as anatomical reference, then applied to the full dynamic data set to generate a time activity curve (TAC).
(§1) The count densities were averaged for all volumes of interest at each time point to obtain a time-activity curve (TAC). The TACs were normalized to injected dose, as measured by a CRC-15 PET dose calibrator (Capintec Inc.), and expressed as % injected dose per gram (% ID/g), assuming 1 g/mL. CT was performed in GNEXT depth of interaction (DOI) dual-layer detector system. Scintica VivoQuant software was used to visualize radiotracer uptake and define the 3D volumes of interest. 3D maximum intensity projection (MIP) PET/CT images were created using IRW software.
On days 15-16 after EAE induction, mice were catheterized and placed on the 4-mouse scanning bed of the Sofie GNEXT PET/CT scanner.

[2] = target: T1, GPR84 (Mus musculus, UniProt Q8CIM5); test: Dynamic PET/CT of brain in LPS-induced systemic inflammation vs saline, with or without GLPG1205 block; assay type: in vivo; conditions: LPS 5 mg/kg
T1 construct: tissue Jackson Laboratories; host or cells: female C57BL/6J mice (LPS, saline, EAE or naive): brain, spinal cord and peripheral organs
T1 sequence (Q8CIM5 whole entry): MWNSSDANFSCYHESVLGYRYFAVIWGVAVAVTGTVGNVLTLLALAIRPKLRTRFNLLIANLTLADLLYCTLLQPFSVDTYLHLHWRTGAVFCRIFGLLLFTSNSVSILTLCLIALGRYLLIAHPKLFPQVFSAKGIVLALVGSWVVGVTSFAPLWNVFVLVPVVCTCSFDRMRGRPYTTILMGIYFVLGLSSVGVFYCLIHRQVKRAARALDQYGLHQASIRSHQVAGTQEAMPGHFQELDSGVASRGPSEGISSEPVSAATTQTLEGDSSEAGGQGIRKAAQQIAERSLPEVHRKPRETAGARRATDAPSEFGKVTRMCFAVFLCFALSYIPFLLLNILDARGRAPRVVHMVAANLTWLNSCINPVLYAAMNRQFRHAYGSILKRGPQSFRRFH
Experimental: (§2) To determine KD of GLPG38, a competitive binding assay was performed using a membrane preparation from cells expressing GPR84-Gi in addition to [^3H]G9543, a known GPR84 antagonist. [^11C]GLPG38 was then radiosynthesized via [^11C]methylation of desmethyl precursor using [^11C]methyl iodide. […] Dynamic 60 min PET/CT imaging was performed 24 hr following LPS-administration using [^11C]GLPG38. Subsequently, mice were perfused with PBS to remove blood, and radioactive signal was assessed in CNS and peripheral tissues via gamma counting. Ex vivo autoradiography of sagittal mouse brain sections was conducted to obtain high resolution images of [^11C]GLPG38 binding. To investigate alterations in GPR84 mRNA expression, quantitative polymerase-chain reaction was performed using mouse brain tissue and human monocyte-derived macrophage cells stimulated with LPS 24 hr prior to RNA extraction.
as §1
A range of doses (0.65, 0.75, and 0.90 mg/kg) of GLPG1205 were used to investigate whether the blocking was dose-dependent. […] GLPG1205 was injected intra-venously 10 min prior to radiotracer injection (n=4).

[3] = target: T1, GPR84; test: Ex vivo biodistribution (gamma counting) of GPR84 tracer in LPS- vs saline-treated mice; conditions: 20 min post injection
Experimental: FIGS. 11A-11B show ex vivo biodistribution and autoradiography. […] At 20 min postinjection, animals were perfused with saline and tissues were collected, weighed, and gamma-counted. […] Statistical analysis was performed using “Unpaired t test with Welch correction”, *=P<0.05. […] Cb=cerebellum, Ctx=cortex, Str=striatum, H=hippocampus, Mb=midbrain, Ob=olfactory bulb, and BS=brain stem.
as §2

[4] = Experimental: In vivo stability assay. […] Mice were perfused with PBS buffer (20 mL) under deep anesthesia (5 min, 20 min). The whole brain and liver lobe were removed from mouse place in two separate […] microcentrifuge tubes containing 500 μL acetonitrile, homogenized sample and placed on ice. The well-homogenized samples were transferred to two 1.5 mL microcentrifuge tubes, centrifuged at 9,400 g for 4 min at room temperature. Supernatants were transferred into gamma counting tubes; the pellets were transferred into separate tubes. All supernatants and pellets were counted using gamma counter to measure extraction efficiency. Each of the supernatant (150-200 μL) was transferred into HPLC vials with the inserts and injected into HPLC for radio-metabolic analysis.
At 5 and 20 min post-tracer injection, the analysis of the whole brain and liver was performed using analytical HPLC to assess the presence of potential radiometabolites.

[5] = target: T1, GPR84; test: Ex vivo autoradiography of brain sections from LPS-treated mice; assay type: in vivo; conditions: GLPG1205 5 mg/kg ([11C]GLPG38) or 1 mg/kg (11C-MGX-10S)
Experimental: (§3) To determine KD of GLPG38, a competitive binding assay was performed using a membrane preparation from cells expressing GPR84-Gi in addition to [^3H]G9543, a known GPR84 antagonist. [^11C]GLPG38 was then radiosynthesized via [^11C]methylation of desmethyl precursor using [^11C]methyl iodide. Binding specificity of [^11C]GLPG38 was assessed using human GPR84-stably-expressing human embryonic kidney cells (HEK-293) versus control HEK-293 cells. For animal studies, sepsis was induced in female C57BL/6J mice via intraperitoneal injection of lipopolysaccharide (LPS, 10 mg/kg); vehicle-treated mice were injected with saline alone. Dynamic 60 min PET/CT imaging was performed 24 hr following LPS-administration using [^11C]GLPG38. Subsequently, mice were perfused with PBS to remove blood, and radioactive signal was assessed in CNS and peripheral tissues via gamma counting. Ex vivo autoradiography of sagittal mouse brain sections was conducted to obtain high resolution images of [^11C]GLPG38 binding. To investigate alterations in GPR84 mRNA expression, quantitative polymerase-chain reaction was performed using mouse brain tissue and human monocyte-derived macrophage cells stimulated with LPS 24 hr prior to RNA extraction.
Ex vivo Audoradiography Confirms ^11C-MGX-10S Specificity.

[6] = target: T2, purinergic receptor subtype 7 (P2×7) (Mus musculus, UniProt Q9Z1M0); conditions: LPS 5 mg/kg; cited from earlier work
T2 construct: host or cells: mouse brain in vivo, LPS 5 mg/kg
T2 sequence (Q9Z1M0 1-595): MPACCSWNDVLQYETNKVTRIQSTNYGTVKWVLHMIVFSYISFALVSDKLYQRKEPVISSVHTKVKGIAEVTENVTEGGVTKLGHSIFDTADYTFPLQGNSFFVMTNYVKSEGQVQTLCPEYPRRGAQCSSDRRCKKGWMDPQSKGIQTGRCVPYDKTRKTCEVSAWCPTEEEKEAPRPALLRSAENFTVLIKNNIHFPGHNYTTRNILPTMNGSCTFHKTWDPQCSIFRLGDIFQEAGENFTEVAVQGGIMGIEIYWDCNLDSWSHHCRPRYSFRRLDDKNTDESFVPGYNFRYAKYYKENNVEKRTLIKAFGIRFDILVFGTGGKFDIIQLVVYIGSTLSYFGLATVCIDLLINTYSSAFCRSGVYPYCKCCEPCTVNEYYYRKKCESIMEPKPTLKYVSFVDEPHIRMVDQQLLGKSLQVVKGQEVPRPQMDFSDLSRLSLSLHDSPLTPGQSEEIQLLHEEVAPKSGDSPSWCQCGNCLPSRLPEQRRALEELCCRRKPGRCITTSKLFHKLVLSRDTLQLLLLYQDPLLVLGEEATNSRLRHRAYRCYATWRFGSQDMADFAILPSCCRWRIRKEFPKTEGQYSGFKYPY

[7] = target: T3, CSF1R (Mus musculus, UniProt P09581); conditions: LPS 10 mg/kg; cited from earlier work
T3 construct: host or cells: mouse brain in vivo, LPS 10 mg/kg
T3 sequence (P09581 20-977): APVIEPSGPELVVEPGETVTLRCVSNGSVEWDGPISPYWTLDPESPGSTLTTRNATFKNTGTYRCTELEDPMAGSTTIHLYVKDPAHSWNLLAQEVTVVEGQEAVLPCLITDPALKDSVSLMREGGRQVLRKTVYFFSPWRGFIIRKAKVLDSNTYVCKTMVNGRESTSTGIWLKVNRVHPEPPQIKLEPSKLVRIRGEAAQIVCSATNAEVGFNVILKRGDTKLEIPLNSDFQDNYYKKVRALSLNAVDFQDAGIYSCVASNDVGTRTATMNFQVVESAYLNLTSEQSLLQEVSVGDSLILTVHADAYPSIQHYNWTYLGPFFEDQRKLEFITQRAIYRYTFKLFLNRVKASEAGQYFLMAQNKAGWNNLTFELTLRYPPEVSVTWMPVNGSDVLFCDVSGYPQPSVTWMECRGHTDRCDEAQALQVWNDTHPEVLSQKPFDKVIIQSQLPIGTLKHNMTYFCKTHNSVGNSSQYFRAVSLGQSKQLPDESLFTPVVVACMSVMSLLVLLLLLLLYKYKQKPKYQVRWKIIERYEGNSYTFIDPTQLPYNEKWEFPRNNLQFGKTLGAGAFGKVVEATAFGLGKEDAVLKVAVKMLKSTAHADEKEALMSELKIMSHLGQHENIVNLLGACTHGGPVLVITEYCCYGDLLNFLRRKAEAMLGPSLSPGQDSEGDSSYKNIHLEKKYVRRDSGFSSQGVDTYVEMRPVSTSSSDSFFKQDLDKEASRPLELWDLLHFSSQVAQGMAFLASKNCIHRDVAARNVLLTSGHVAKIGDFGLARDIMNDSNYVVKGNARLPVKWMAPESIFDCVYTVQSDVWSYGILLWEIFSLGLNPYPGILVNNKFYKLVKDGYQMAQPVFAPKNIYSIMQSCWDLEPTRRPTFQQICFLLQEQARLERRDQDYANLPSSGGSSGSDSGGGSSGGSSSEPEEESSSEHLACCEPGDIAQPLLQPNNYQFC

[8] = target: T4, postsynaptic dopamine D2 receptors (Rattus norvegicus, UniProt P61169); conditions: healthy rodents; cited from earlier work
T4 construct: host or cells: healthy rodent brain in vivo
T4 sequence (P61169 whole entry): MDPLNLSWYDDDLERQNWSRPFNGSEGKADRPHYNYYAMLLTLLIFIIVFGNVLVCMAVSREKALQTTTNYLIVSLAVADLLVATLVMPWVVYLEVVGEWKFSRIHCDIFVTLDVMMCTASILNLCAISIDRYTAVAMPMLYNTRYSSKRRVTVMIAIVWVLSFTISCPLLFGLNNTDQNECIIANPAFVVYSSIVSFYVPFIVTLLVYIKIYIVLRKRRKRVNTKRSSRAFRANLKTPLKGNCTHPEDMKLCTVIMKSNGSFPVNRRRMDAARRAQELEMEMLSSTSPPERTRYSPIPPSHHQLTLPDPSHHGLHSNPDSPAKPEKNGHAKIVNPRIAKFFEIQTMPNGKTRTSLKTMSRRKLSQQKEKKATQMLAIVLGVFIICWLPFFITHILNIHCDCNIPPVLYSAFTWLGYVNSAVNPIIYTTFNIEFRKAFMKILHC

[9] = target: human GPR84-Gαi2 fusion protein (Homo sapiens, UniProt Q9NQS5); test: [3H]G9543 competition binding assay, membranes from Flp-In TREx 293 cells; conditions: competition with [3H]G9543; read-out: Kd (affinity for GPR84)
human GPR84-Gαi2 fusion protein, sequence (Q9NQS5 whole entry, the tested form may be a part): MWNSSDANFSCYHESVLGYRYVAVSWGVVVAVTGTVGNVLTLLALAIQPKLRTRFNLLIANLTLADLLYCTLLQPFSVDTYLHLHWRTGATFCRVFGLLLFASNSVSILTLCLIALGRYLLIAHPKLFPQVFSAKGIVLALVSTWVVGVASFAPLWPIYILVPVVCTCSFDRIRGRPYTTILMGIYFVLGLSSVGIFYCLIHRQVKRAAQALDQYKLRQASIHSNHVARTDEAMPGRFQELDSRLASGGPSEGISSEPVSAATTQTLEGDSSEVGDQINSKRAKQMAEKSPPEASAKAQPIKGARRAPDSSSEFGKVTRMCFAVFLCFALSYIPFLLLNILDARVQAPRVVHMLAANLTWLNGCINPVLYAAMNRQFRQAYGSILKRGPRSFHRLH
Experimental: as §3, with “Binding specificity of [^11C]GLPG38 was assessed using human GPR84-stably-expressing human embryonic kidney cells (HEK-293) versus control HEK-293 cells.” left out

[10] = target: T5, synaptic vesicle glycoprotein 2A receptor (Mus musculus, UniProt Q9JIS5); conditions: cited from earlier work
T5 construct: host or cells: healthy mouse brain in vivo
T5 sequence (Q9JIS5 whole entry): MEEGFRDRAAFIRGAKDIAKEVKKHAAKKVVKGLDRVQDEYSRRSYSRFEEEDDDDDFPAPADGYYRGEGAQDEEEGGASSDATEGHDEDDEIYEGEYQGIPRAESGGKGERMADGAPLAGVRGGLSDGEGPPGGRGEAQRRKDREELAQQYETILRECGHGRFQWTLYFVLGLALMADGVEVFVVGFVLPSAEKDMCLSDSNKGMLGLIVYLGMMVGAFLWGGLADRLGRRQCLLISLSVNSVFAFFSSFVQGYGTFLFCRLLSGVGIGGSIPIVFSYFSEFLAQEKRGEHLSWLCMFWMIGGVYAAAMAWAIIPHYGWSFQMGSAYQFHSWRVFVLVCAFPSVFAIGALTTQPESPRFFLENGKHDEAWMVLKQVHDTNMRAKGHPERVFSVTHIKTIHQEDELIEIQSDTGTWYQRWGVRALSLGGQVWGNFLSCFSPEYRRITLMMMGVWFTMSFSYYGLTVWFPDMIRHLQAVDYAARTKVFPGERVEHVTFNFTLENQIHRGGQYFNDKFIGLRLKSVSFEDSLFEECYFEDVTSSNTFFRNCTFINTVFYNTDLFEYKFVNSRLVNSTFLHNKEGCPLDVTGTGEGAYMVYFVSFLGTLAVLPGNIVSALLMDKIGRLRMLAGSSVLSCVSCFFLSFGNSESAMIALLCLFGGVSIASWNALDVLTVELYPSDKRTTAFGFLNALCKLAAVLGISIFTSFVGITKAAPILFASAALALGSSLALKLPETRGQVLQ

SMILES: [11CH3]Oc1ccc2c(c1)CCn1c-2cc(OC[C@@H]2COCCO2)nc1=O [^11C-MGX-10S]
time of peak brain uptake [1]: ≤ 22.5 s | whole-brain uptake after washout, end of 60 min scan [1]: 1.89±0.35 % ID/g | peak whole-brain uptake ([1]; 60 min dynamic scan): 5.90±0.89 % ID/g | reduction of brain PET signal in LPS mice by GLPG1205 at end of scan ([2]; GLPG1205 0.65 mg/kg i.v. 10 min before tracer): 38.50% | increase in whole-brain radiotracer uptake, LPS vs saline, 30-60 min integration [2]: approximately 39.27% | higher brain accumulation in LPS vs saline-treated mice at end of scan ([2]; 60 min dynamic PET): 42.46% | adipose tissue uptake, saline-treated mice [3]: 0.63±0.15 % ID/g | kidney uptake, saline-treated mice [3]: 5.32±3.01 % ID/gram | liver uptake, saline-treated mice [3]: 4.51±0.15 % ID/gram | brain uptake, saline-treated mice ([3]; perfused): 0.45±0.06 % ID/g | adipose tissue uptake, LPS-treated mice ([3]; LPS 5 mg/kg): 1.16±0.50 % ID/g | kidney uptake, LPS-treated mice ([3]; LPS 5 mg/kg): 8.73±3.18 % ID/gram | liver uptake, LPS-treated mice ([3]; LPS 5 mg/kg): 7.08±1.27 % ID/gram | brain uptake, LPS-treated mice ([3]; LPS 5 mg/kg, perfused): 0.84±0.21 % ID/gram | radiometabolite M1 in brain at 20 min post injection ([4]; HPLC): 3% | radiometabolite M1 in liver at 20 min post injection ([4]; HPLC): 10% | intact radiotracer in liver at 20 min post injection ([4]; LPS-treated mice): 90% | intact radiotracer in liver, initial (5 min) ([4]; LPS-treated mice): 100% | intact radiotracer in brain at 5 min post injection ([4]; LPS-treated mice, n=3): 100% | intact radiotracer in brain at 20 min post injection ([4]; LPS-treated mice, n=3): 97% | tracer binding in LPS brain sections after pre-blocking with GLPG1205 [5]: dramatic reduction

SMILES: [11CH3]N1C(=O)CC[C@H]1C(=O)NCc1cccc(C(F)(F)F)c1Cl [^11C-GSK1482160]
fold higher binding in brain, LPS vs saline-treated mice [6]: 3.2 fold

SMILES: CN1CCN(c2ccc(NC(=O)c3ccc(C#N)o3)c(N3CCCCC3)c2)CC1 [^11C-CPPC, [11C]5-Cyano-N-(4-(4-Methylpiperazin-1-YI)-2-(Piperidin-1-YI)Phenyl)Furan-2-Carboxamide]
higher binding in mouse brain, LPS vs control animal [7]: 55%

SMILES: CCN1CCC[C@H]1CNC(=O)c1c(O)c(Cl)cc(Cl)c1O[11CH3] (racemic) [^11C-Raclopride]
Brain 5 min/60 min ratio [8]: ~2 | time of maximum brain uptake [8]: 5 min

Kd [9]: 11.8 nM
SMILES: COc1cc2c(cc1C)-c1c(C)c(OC[C@@H]3COCCO3)cc(=O)n1CC2 [GLPG38]

SMILES: [11CH3]c1cnccc1CN1C[C@@H](c2cc(F)c(F)c(F)c2)CC1=O [^11C-UCBJ]
Brain 15 min/90 min ratio ([10]; healthy mouse brain): ~3 | time of maximum brain uptake ([10]; healthy mouse): 15 min
